Experimental data taken from patent US20150148306A1, “COMPOSITIONS AND METHODS FOR THE TREATMENT OF INFLAMMATION” (priority 2012, published 2015).

Test: physchem
Type: physicochemical
Conditions: water, thermodynamic from solid
Experimental: Measurement of the water solubility of the test compounds is accomplished by using methods well known to those skilled in the art. Specifically, to a weighed amount of the test compound of the example compound Formula I (1-1) distilled water was added in small proportions until a clear solution was obtained. The total volume of the solution is measured. The water solubility is calculated by dividing the weight of the salt, in milligrams (mg), by the volume of the solution, in mL. […] The compound of Formula I (1-1) is therefore, at least 372 times more soluble in water than EPA itself. This is a clear indication of an unexpectedly high degree of bioavailability of the compositions of the invention. Highly water soluble medicinal preparations, when administered orally, result in efficient absorption from the gastrointestinal tract in to systemic circulation. Furthermore, water soluble preparations are especially suitable for parenteral administration.

- solubility: < 200 µg/mL
SMILES: CC/C=C\C/C=C\C/C=C\C/C=C\C/C=C\CCCC(=O)O [EPA, Eicosapentaenoic Acid]
